#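 Tested at 5 concentrations; 48 h exposure; 96-well plates; endpoints linearly interpolated, else capped at highest concentration. TGI marks complete inhibition of growth.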
# Legend:
# Test in all cases: NCI-60 cell line screen, 48 h
# MDA-MB-231 breast = tested on: MDA-MB-231 breast
# MOLT-4 leukemia = tested on: MOLT-4 leukemia
# SK-MEL-5 melanoma = tested on: SK-MEL-5 melanoma
# UACC-62 melanoma = tested on: UACC-62 melanoma
# T-47D breast = tested on: T-47D breast
# HOP-92 NSCLC = tested on: HOP-92 NSCLC
# MALME-3M melanoma = tested on: MALME-3M melanoma
# LOX IMVI melanoma = tested on: LOX IMVI melanoma
# OVCAR-8 ovarian = tested on: OVCAR-8 ovarian
# HCT-116 colon = tested on: HCT-116 colon
# M14 melanoma = tested on: M14 melanoma
# RXF 393 renal = tested on: RXF 393 renal
# IGROV1 ovarian = tested on: IGROV1 ovarian
# SF-539 CNS = tested on: SF-539 CNS
# SN12C renal = tested on: SN12C renal
# RPMI-8226 leukemia = tested on: RPMI-8226 leukemia
# 786-0 renal = tested on: 786-0 renal
# HT29 colon = tested on: HT29 colon
# SF-295 CNS = tested on: SF-295 CNS
# SK-OV-3 ovarian = tested on: SK-OV-3 ovarian
Compound,TGI (MDA-MB-231 breast),TGI (MOLT-4 leukemia),TGI (SK-MEL-5 melanoma),TGI (UACC-62 melanoma),TGI (T-47D breast),TGI (HOP-92 NSCLC),TGI (MALME-3M melanoma),TGI (LOX IMVI melanoma),TGI (OVCAR-8 ovarian),TGI (HCT-116 colon),TGI (M14 melanoma),TGI (RXF 393 renal),TGI (IGROV1 ovarian),TGI (SF-539 CNS),TGI (SN12C renal),TGI (RPMI-8226 leukemia),TGI (786-0 renal),TGI (HT29 colon),TGI (SF-295 CNS),TGI (SK-OV-3 ovarian)
COc1cc(/C=C/C2=NN(c3cccc(S(=O)(=O)O)c3)C3(C2)C(Cl)C(=O)N3c2nc3ccccc3s2)ccc1O (centres undefined),47.1 µM,44.9 µM,85.2 µM,43.1 µM,26.4 µM,29.7 µM,34.5 µM,27.5 µM,40.8 µM,39.2 µM,> 100 µM,> 100 µM,31.5 µM,46 µM,47.5 µM,37.6 µM,32.2 µM,40.8 µM,,
CN(C)Cc1cc(N=Nc2ccccc2Cl)cc(CN(C)C)c1O,> 100 µM,> 100 µM,32 µM,64.1 µM,> 100 µM,> 100 µM,,38.7 µM,> 100 µM,> 100 µM,49.1 µM,88.3 µM,> 100 µM,> 100 µM,> 100 µM,> 100 µM,> 100 µM,> 100 µM,> 100 µM,
CC(C)(C)OC(=O)CN1CCNCCN(CC(=O)OC(C)(C)C)CC1,> 100 µM,> 100 µM,> 100 µM,> 100 µM,> 100 µM,> 100 µM,> 100 µM,> 100 µM,> 100 µM,> 100 µM,> 100 µM,,> 100 µM,> 100 µM,> 100 µM,> 100 µM,> 100 µM,> 100 µM,> 100 µM,> 100 µM
O=[N+]([O-])c1ccc(N=NN2CCCC2)cc1,> 100 µM,> 100 µM,> 100 µM,> 100 µM,> 100 µM,> 100 µM,,> 100 µM,> 100 µM,> 100 µM,> 100 µM,> 100 µM,> 100 µM,> 100 µM,> 100 µM,> 100 µM,> 100 µM,,> 100 µM,> 100 µM
COc1ccc(C2NC3=C(CCCC3)C3(C#N)C(=O)N=C(N)C23C#N)cc1 (centres undefined),> 100 µM,> 100 µM,> 100 µM,> 100 µM,> 100 µM,> 100 µM,> 100 µM,> 100 µM,> 100 µM,> 100 µM,> 100 µM,> 100 µM,> 100 µM,,> 100 µM,> 100 µM,> 100 µM,> 100 µM,> 100 µM,> 100 µM
NC(N)=NC(N)=Nc1c(F)c(F)c(F)c(F)c1F,> 100 µM,,> 100 µM,> 100 µM,> 100 µM,> 100 µM,> 100 µM,,> 100 µM,> 100 µM,48.4 µM,> 100 µM,> 100 µM,> 100 µM,> 100 µM,> 100 µM,> 100 µM,> 100 µM,> 100 µM,> 100 µM
CCOC(=O)COc1ccc(/C=C/C(=O)c2ccc(OC)cc2)cc1,88.3 µM,> 100 µM,,58.6 µM,> 100 µM,48.2 µM,92.7 µM,39.4 µM,> 100 µM,57.7 µM,> 100 µM,46 µM,> 100 µM,41.5 µM,39.6 µM,> 100 µM,54.3 µM,64.9 µM,> 100 µM,
O=C1CCC[C@H]2O[C@@H](COCc3ccccc3)C[C@@H]12,> 100 µM,> 100 µM,> 100 µM,> 100 µM,> 100 µM,> 100 µM,,,> 100 µM,> 100 µM,> 100 µM,,,> 100 µM,> 100 µM,> 100 µM,> 100 µM,> 100 µM,> 100 µM,> 100 µM
O=C1C(N=Nc2ccc(-c3nc4ccccc4o3)cc2)NC(=S)N1c1ccccc1 (centres undefined),> 100 µM,> 100 µM,> 100 µM,> 100 µM,> 100 µM,> 100 µM,> 100 µM,> 100 µM,> 100 µM,> 100 µM,> 100 µM,> 100 µM,> 100 µM,> 100 µM,> 100 µM,,> 100 µM,> 100 µM,> 100 µM,> 100 µM
Cc1c2cnccc2nc2[nH]c3ccncc3c12,> 100 µM,> 100 µM,20.6 µM,41.5 µM,> 100 µM,25.3 µM,14.1 µM,11.9 µM,> 100 µM,,20.6 µM,,20.4 µM,> 100 µM,> 100 µM,19.5 µM,63.1 µM,> 100 µM,52.5 µM,> 100 µM
N#Cc1ccc(OCc2ccc3nc(-c4ccccc4)c(Cl)nc3c2)cc1,> 100 µM,> 100 µM,> 100 µM,> 100 µM,> 100 µM,> 100 µM,> 100 µM,> 100 µM,> 100 µM,> 100 µM,> 100 µM,,> 100 µM,> 100 µM,> 100 µM,> 100 µM,> 100 µM,> 100 µM,> 100 µM,
N#Cc1c2c([nH]c(=O)c1C#N)CCCC2,> 100 µM,> 100 µM,> 100 µM,> 100 µM,> 100 µM,> 100 µM,> 100 µM,> 100 µM,> 100 µM,> 100 µM,> 100 µM,> 100 µM,> 100 µM,> 100 µM,> 100 µM,,> 100 µM,> 100 µM,> 100 µM,> 100 µM
Cc1ccc(-c2n[nH]c(=O)[nH]2)cc1,> 100 µM,> 100 µM,> 100 µM,> 100 µM,> 46.4 µM,> 46.4 µM,> 100 µM,> 100 µM,> 100 µM,> 100 µM,> 100 µM,> 100 µM,> 100 µM,> 100 µM,> 100 µM,> 100 µM,> 100 µM,> 100 µM,> 100 µM,
Cc1ccc(C(=O)C#Cc2cn(C3CC(O)C(CO)O3)c(=O)[nH]c2=O)cc1 (centres undefined),> 100 µM,,> 100 µM,> 100 µM,45 µM,65.1 µM,29.1 µM,> 100 µM,> 100 µM,> 100 µM,> 100 µM,> 100 µM,> 100 µM,> 100 µM,> 100 µM,> 100 µM,> 100 µM,> 100 µM,> 100 µM,> 100 µM
O=C1C(=O)N(C2CCCCC2)C(=S)N1C1CCCCC1,> 100 µM,> 100 µM,> 100 µM,> 100 µM,> 100 µM,> 100 µM,> 100 µM,> 100 µM,> 100 µM,> 100 µM,,> 100 µM,> 100 µM,> 100 µM,> 100 µM,> 100 µM,> 100 µM,> 100 µM,> 100 µM,> 100 µM
O=[N+]([O-])/C(C(Cl)=C(Cl)Cl)=C1/OCCS1,40.2 µM,41.2 µM,34 µM,61.9 µM,91 µM,,40.8 µM,41.8 µM,34.4 µM,35.2 µM,> 100 µM,41.3 µM,47.7 µM,42.9 µM,43.8 µM,66.2 µM,38.6 µM,> 100 µM,90.5 µM,> 100 µM
CN1CN(c2ccccc2)C2(CCN(CCCC(=O)c3cccs3)CC2)C1=O,> 100 µM,> 100 µM,65 µM,> 100 µM,> 100 µM,,> 100 µM,> 100 µM,> 100 µM,> 100 µM,> 100 µM,> 100 µM,> 100 µM,64 µM,> 100 µM,> 100 µM,> 100 µM,73.6 µM,85.6 µM,> 100 µM
CC1=CCS(=O)(=O)C1C(O)C1=C(C)CCCC1(C)C (centres undefined),> 100 µM,> 100 µM,> 100 µM,> 100 µM,> 100 µM,,> 100 µM,> 100 µM,> 100 µM,> 100 µM,> 100 µM,> 100 µM,> 100 µM,> 100 µM,> 100 µM,> 100 µM,> 100 µM,> 100 µM,> 100 µM,> 100 µM
Nc1nnc(-c2ccco2)c(-c2ccco2)n1,> 100 µM,> 100 µM,> 100 µM,> 100 µM,> 100 µM,> 100 µM,> 100 µM,,> 100 µM,> 100 µM,> 100 µM,> 100 µM,> 100 µM,> 100 µM,> 100 µM,> 100 µM,> 100 µM,> 100 µM,> 100 µM,> 100 µM
O=C(CC(C(=O)c1ccsc1)c1ccccc1)c1cccs1 (centres undefined),> 100 µM,> 100 µM,> 100 µM,> 100 µM,45.3 µM,> 100 µM,,,> 100 µM,> 100 µM,> 100 µM,> 100 µM,> 100 µM,> 100 µM,> 100 µM,> 100 µM,> 100 µM,> 100 µM,> 100 µM,> 100 µM
O=C1N[C@@H]([C@H](CCCCCO)OC(=O)c2ccccc2)CO1,> 100 µM,> 100 µM,> 100 µM,> 100 µM,> 100 µM,> 100 µM,,> 100 µM,> 100 µM,> 100 µM,,> 100 µM,> 100 µM,> 100 µM,> 100 µM,> 100 µM,> 100 µM,> 100 µM,> 100 µM,> 100 µM
Cc1ccc(NC(=O)CC(=O)n2nc(C)c(N=Nc3ccc(S(=O)(=O)CCOS(=O)(=O)O)cc3)c2C)cc1,> 100 µM,> 100 µM,> 100 µM,> 100 µM,> 100 µM,,> 100 µM,> 100 µM,> 100 µM,> 100 µM,> 100 µM,> 100 µM,> 100 µM,> 100 µM,,> 100 µM,> 100 µM,> 100 µM,> 100 µM,> 100 µM
Cn1c(COC(=O)NC2CCCCC2)c(COC(=O)NC2CCCCC2)c2ccc3cc(Cl)c(Cl)cc3c21,22.1 µM,54.4 µM,26.4 µM,24.1 µM,22.4 µM,19.5 µM,25.9 µM,30.6 µM,> 100 µM,23.1 µM,36.7 µM,21.4 µM,39.1 µM,42.1 µM,23.9 µM,,30.3 µM,69.3 µM,> 100 µM,> 100 µM
COc1cc2c(c(OC)c1OC)C(=O)[C@H]1OC(=O)N[C@@H]21,> 100 µM,> 100 µM,,> 100 µM,> 100 µM,> 100 µM,,> 100 µM,> 100 µM,> 100 µM,> 100 µM,> 100 µM,,> 100 µM,> 100 µM,> 100 µM,> 100 µM,> 100 µM,> 100 µM,> 100 µM
O=Cc1cc2c(o1)C(=O)c1ccccc1C2=O,> 30.2 µM,4.56 µM,0.698 µM,3.29 µM,3.94 µM,,0.37 µM,0.679 µM,2.72 µM,1.18 µM,0.367 µM,2.99 µM,4.46 µM,2.25 µM,0.779 µM,> 100 µM,2.9 µM,2.12 µM,0.813 µM,9.57 µM
Nc1ccc(S(=O)(=O)c2ccc(NC(=O)c3cccnc3)cc2)cc1,> 100 µM,> 100 µM,> 100 µM,> 100 µM,> 100 µM,> 100 µM,> 100 µM,> 100 µM,> 100 µM,> 100 µM,> 100 µM,> 100 µM,> 100 µM,,> 100 µM,> 100 µM,> 100 µM,> 100 µM,> 100 µM,> 100 µM

# From PubChem BioAssay (NCI)
